Molecules are shown by their SMILES.

One may read the EC50 as the midpoint of the concentration-response curve. A high value points to weaker potency. As usually defined, the viability is the share of living cells, or the viability signal relative to a control.

The subject of data set [1] is Bmi-1. Nature of the data set: Cell Model Assay: Bmi-1 expression in K562. As to conditions: K562 (chronic myelogenous leukemia). The class given is cell-based. As for the experimental part:
(§1) Using assay conditions known to those skilled in the art, the ability of the compounds described herein to reduce Bmi-1 expression in HT1080 (fibrosarcoma), U87-MG (glioblastoma), T98G (glioblastoma), K562 (chronic myelogenous leukemia) and KG1 (acute myelogenous leukemia) cell lines was tested (at test compound concentrations calculated from the ELISA assay data shown in Example 1) compared to puromycin as a control to provide the EC50 values shown in Table 2. The term “ND” means that data was not determined.

In data set [2] the test system is Bmi-1. Nature of the data set: In-Vivo Xenograft Model: intratumor Bmi-1 levels by Bmi-1 ELISA. On the set-up: species or system nude mice. As to conditions: subcutaneously at 30 or 60 mg/kg/day for ten days, compared to the vehicle control (p<0.002). As for the experimental part:
(§2) HT1080 cells (human fibrosarcoma cells) were implanted subcutaneously in nude mice. After seven days, mice were administered compounds subcutaneously at 30 or 60 mg/kg/day for ten days. The tumors were then excised from mice and homogenized in Tris-HCl buffer containing a cocktail of proteinase inhibitors. Intratumor Bmi-1 levels were subsequently measured using the Bmi-1 ELISA assay of Example 1. Protein concentrations of the homogenates were measured with a Bio-Rad Protein assay kit and intratumor Bmi-1 levels were normalized to the protein concentrations. Treatment with the compound for ten days inhibited tumor growth by 35% as compared to the vehicle-treated control groups. […] Since p27 expression is not regulated by Bmi-1 activity, no changes in the levels of this protein were observed within treated tumors.
In general terms: In an ELISA, binding on a coated surface is turned into a signal by an enzyme label.

In another data set the test system is MM cell line. The data set can be described thus: Multiple Myeloma Assay. The class given is cell-based. As to conditions: 72 hrs in culture.
The subject of the next data set is p27. The data set can be described thus: In-Vivo Xenograft Model: intratumor p27 levels (control). On the set-up: species or system nude mice. As to conditions: subcutaneously at 30 or 60 mg/kg/day for ten days. As for the experimental part:
as §2

Data set [3] relates to Bmi-1. Nature of the data set: Cell Model Assay: Bmi-1 expression in KG1. The class given is cell-based. As to conditions: KG1 (acute myelogenous leukemia). As for the experimental part: as §1
Data set [4] relates to HT1080 cells (human fibrosarcoma cells). The class given is in vivo, nude mice. As for the experimental part: as §2
Data set [5] relates to Jeko, Mino and Rec1 MCL-cell lines. Nature of the data set: Cell Cycle Analysis (propidium iodide flow cytometry). As to conditions: MCL cells, 60 nM, FIG. 3. Format: cell-based. As for the experimental part: Cell cycle analysis was performed for MCL-cell lines treated with Bmi-1 inhibitor Compounds 1 (data not shown), 14 and 49 (data not shown). For example, Jeko, Mino and Red cells treated with BMI-1 inhibitor Compound 14 at concentrations of 60 nM, 75 nM, and 60 nM, respectively were cultured in T-25 flasks for 24, 48 and 72 hours in 37° C. About 1×10^6 cells were harvested, washed with PBS, fixed with ice-cold 70% ethanol, and treated with 1 mg/ml RNase A (Invitrogen; Carlsbad, Calif.). Cells were then stained with 5 μL 1 mg/mL Propidium Iodide (Sigma-Aldrich; St. Louis, Mo.), incubated in ice for at least 1 hr, and the cell cycle profile was determined using flow cytometry analysis. The same protocol was followed for cell cycle analysis of Jeko, Mino, and Rec1 cell lines treated with Compounds 1 (data not shown) and 49 (data not shown).
On the technique in general: Flow cytometry measures light scatter and fluorescence of single cells or particles in a stream.

The test system of data set [6] is Bmi-1. Nature of the data set: Western Blot Analysis: Bmi-1 levels in MCL cell lines. The note with it: MCL cells cultured for 72 hrs, FIG. 2. The class given is cell-based. As for the experimental part:
(§3) Western Blot analysis was used to determine cytoplasmic protein levels of Bmi-1 and activation of key executioner proteins (Caspases 3, 7, 8, 9) involved in apoptosis. Protein levels were measured in Bmi-1 inhibitor-treated mantle cell lymphoma cell lines. […] Cells were harvested at each time point, washed with ice-cold PBS, and lysed with 1× lysis buffer (20 mM Tris-HCl (pH 7.5), 150 mM NaCl, 1 mM Na2EDTA, 1 mM EGTA, 1% Triton, 2.5 mM sodium pyrophosphate, 1 mM beta-glycerophosphate, 1 mM Na3VO4, 1 μg/ml leupeptin; Cell Signaling Technology; Danvers, Mass.). Protein concentrations were determined using Pierce BCA protein assay (Thermo Scientific; Rockford, Ill.). Electrophoresis of cell lysates (25 μg) were performed with Mini Protean Systems by Bio-Rad Laboratories and run in Bio-Rad Readymade Pre-Cast Gels (4-20% Tris-HCl gels). Proteins were transferred onto PVDF membrane (Bio-Rad), and immunoblotted with anti-Bmi-1-clone F6 antibody (Millipore; Temecula, Calif.) and Caspases 3, 7, 8 and 9 (Cell Signaling Technology; Danvers, Mass.).
A general note: In western blotting, separated proteins are transferred to a membrane and probed.

The test system of data set [7] is Caspases 3, 7, 8, 9 and PARP. The data set can be described thus: Western Blot Analysis: activation of apoptosis proteins in MCL cell lines. The class given is cell-based. As to conditions: MCL cells cultured for 72 hrs, FIG. 2. As for the experimental part:
as §3

The next data set concerns MCL-Jeko. Nature of the data set: Mantle Cell Lymphoma Assay: cytotoxicity, Jeko. The class given is cell-based. As to conditions: MCL-Jeko, 72 hrs. From the text: MCL cell lines Jeko, Mino, and Rec-1 were provided by American Type Culture Collection: The Bioresource Center (Manassas, Va.). […] Carlsbad, Calif.) in T-75 culture flasks. Cell concentration was maintained between 2 to 3×10^5 cells/mL. Early passage cells (passages 2-4) were used for all experiments. Ficoll-Histopaque density sedimentation (Sigma Aldrich) was used for separation of debris and purification of cell lines prior to experiments. […] The cytotoxic effect of test compounds on the MCL-cell lines was assessed by measuring cell concentration and cell viability using a Beckman Coulter Vi-Cell Counter. Controls and treated cells were harvested and counted at day 3.

Consider `COc1cc(Br)c(Nc2nc(-c3c(C)nc4ncccn34)cs2)c(Br)c1` [Cpd 1, N-(2,6-dibromo-4-methoxyphenyl)-4-(2-methylimidazo[1,2-a]pyrimidin-3-yl)thiazol-2-amine], for which the EC50 worked out at 374 nM with Bmi-1 [1] and 321 nM in the data set with Bmi-1 [3]. For the same compound, in the data set with Bmi-1 [2], the “reduced intratumor Bmi-1 protein levels” value is recorded as 67%. The “Cell Concentration, MM cell line” value in the data set with MM cell line (dose 0.004 μM) is on record as 1.02 ± 0.03 ×10^6; in the data set on MM cell line (dose 0.037 μM), 1.06 ± 0.01 ×10^6; with MM cell line (dose 0.11 μM) it was 1.13 ± 0.02 ×10^6; with MM cell line (dose 0.33 μM), 1.10 ± 0.02 ×10^6; with MM cell line (dose 1 μM), 0.54 ± 0.03 ×10^6; in the data set on MM cell line (dose 3 μM), 0.39 ± 0.02 ×10^6. This compound also showed a viability at 0.004 µM with MM cell line (dose 0.004 μM) of 90.07 ± 0.34%. Also, the viability at 0.037 µM in the data set with MM cell line (dose 0.037 μM) turned out to be 89.53 ± 0.71%. The compound also yielded a viability at 0.11 µM in the data set with MM cell line (dose 0.11 μM) of 90.33 ± 0.1%. The same compound yielded a viability at 0.33 µM in the data set on MM cell line (dose 0.33 μM) of 90.63 ± 0.28%. In the data set on MM cell line (dose 1 μM), this compound displayed a viability at 1 µM of 85.4 ± 0.58%. In the data set with MM cell line (dose 3 μM), this compound showed a viability at 3 µM of 79.03 ± 0.45%. Also, the “p27 levels within treated tumors” value in the data set on p27 was “no changes”. In addition, in data set [4] (over the 10 day experiment), the “toxicity within treated mice” value was “no toxicity was observed”. Moreover, the inhibited tumor growth in data set [4] (subcutaneously at 30 or 60 mg/kg/day for ten days, compared to vehicle-treated control groups) worked out at 35%.
Take `COc1ccc(Nc2nc(-c3c(C)nc4ncccn34)cs2)cc1` [Cpd 14, N-(4-methoxyphenyl)-4-(2-methylimidazo[1,2-a]pyrimidin-3-yl)thiazol-2-amine]: in data set [5] (at 48 and 72 hrs), the DNA content entry is “increase in DNA content”. Further, the cell cycle profile result in [5] (at 24 hrs) is “G2/M block”. Besides, in the data set on Bmi-1 [6], the Bmi-1 levels result is given as “time dependant decrease”. Moreover, the “activation of Caspase-9 and PARP” value in data set [7] was “activation of Caspase-9 and PARP”. The “Cell Concentration (×10^6)” value is 1.83 ± 0.03 ×10^6 in the data set on MCL-Jeko (0.004 μM); 1.63 ± 0.05 ×10^6 with MCL-Jeko (0.037 μM); 0.07 ± 0.01 ×10^6 in the data set with MCL-Jeko (0.11 μM); 0.02 ± 0.00 ×10^6 in the data set with MCL-Jeko (0.33 μM); 0.02 ± 0.00 ×10^6 in the data set on MCL-Jeko (1 μM); 0.03 ± 0.00 ×10^6 with MCL-Jeko (3 μM). Moreover, the viability at 0.004 µM in the data set on MCL-Jeko (0.004 μM, read-out: Cell Viability (%)) came to 74.9 ± 0.55%; with MM cell line (dose 0.004 μM), 84.53 ± 0.4%. Besides, the viability at 0.037 µM in the data set with MCL-Jeko (0.037 μM, read-out: Cell Viability (%)) came to 69.4 ± 1.63%; in the data set with MM cell line (dose 0.037 μM), 54.4 ± 0.98%. The viability at 0.11 µM in the data set on MCL-Jeko (0.11 μM, read-out: Cell Viability (%)) was determined as 6.5 ± 0.55%; in the data set with MM cell line (dose 0.11 μM), 54.9 ± 2.79%. Besides, the viability at 0.33 µM with MCL-Jeko (0.33 μM, read-out: Cell Viability (%)) was determined as 1.9 ± 0.31%; in the data set with MM cell line (dose 0.33 μM), 57.7 ± 1.33%. The viability at 1 µM is 1.6 ± 0.26% in the data set on MCL-Jeko (1 μM, read-out: Cell Viability (%)) and 60.9 ± 1.26% in the data set on MM cell line (dose 1 μM). Also, the viability at 3 µM in the data set on MCL-Jeko (3 μM, read-out: Cell Viability (%)) stood at 2.5 ± 0.35%; in the data set with MM cell line (dose 3 μM) it was 59.9 ± 1.32%. Also, the “Cell Concentration, MM cell line” value in the data set on MM cell line (dose 0.004 μM) is on record as 0.84 ± 0.01 ×10^6; in the data set with MM cell line (dose 0.037 μM) it was 0.22 ± 0.00 ×10^6; in the data set on MM cell line (dose 0.11 μM) it was 0.21 ± 0.01 ×10^6; in the data set with MM cell line (dose 0.33 μM), 0.21 ± 0.01 ×10^6; with MM cell line (dose 1 μM) it was 0.24 ± 0.01 ×10^6; with MM cell line (dose 3 μM), 0.25 ± 0.01 ×10^6.

Source of the values: patent US8680113B2, “BMI-1 protein expression modulators” (PTC Therapeutics, Inc., priority 2008, dated 2014).
